Laboratory results taken from PMC9189076 (Oncogene, 2022).

How the values were obtained:
H3K4me2 = test: Global histone methylation immunoblotting in MV4; type: cell-based, human; settings: MV4;11 cells, 0.5 μM, 4 days
IKZF1 and IKZF3 = test: IKZF1/IKZF3 degradation by immunoblotting in cells; type: cell-based, human; settings: MV4;11, RS4;11 and other cell lines
LIMD1 = LIMD1 (Homo sapiens, UniProt Q9UGP4); test: LIMD1 degradation by immunoblotting in MV4; type: cell-based; settings: MV4;11 and RS4;11 cells, 0.5 μM, 18 h
LIMD1, sequence (Q9UGP4 whole entry): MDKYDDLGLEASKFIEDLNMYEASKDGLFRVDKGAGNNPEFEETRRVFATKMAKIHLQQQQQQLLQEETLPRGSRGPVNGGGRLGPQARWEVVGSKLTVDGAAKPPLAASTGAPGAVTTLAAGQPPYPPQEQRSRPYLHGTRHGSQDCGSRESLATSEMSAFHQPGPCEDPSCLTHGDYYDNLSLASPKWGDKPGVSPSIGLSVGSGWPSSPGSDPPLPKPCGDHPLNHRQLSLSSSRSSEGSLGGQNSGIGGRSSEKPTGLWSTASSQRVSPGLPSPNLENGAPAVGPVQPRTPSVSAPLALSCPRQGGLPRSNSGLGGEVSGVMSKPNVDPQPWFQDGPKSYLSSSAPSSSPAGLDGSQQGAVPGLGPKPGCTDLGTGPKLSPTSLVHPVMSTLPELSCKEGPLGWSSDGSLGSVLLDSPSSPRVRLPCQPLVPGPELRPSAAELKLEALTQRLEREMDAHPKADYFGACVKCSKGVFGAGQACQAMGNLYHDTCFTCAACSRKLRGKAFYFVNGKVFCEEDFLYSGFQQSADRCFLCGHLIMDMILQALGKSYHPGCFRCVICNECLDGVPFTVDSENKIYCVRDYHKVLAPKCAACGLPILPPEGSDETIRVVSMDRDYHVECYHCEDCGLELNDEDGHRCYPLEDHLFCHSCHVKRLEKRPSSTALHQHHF

[1] = test system: BT549 and SUM149 breast cancer cells; test: Anti-proliferative effect in breast cancer cells; type: cell-based; settings: MS40 relative to MS40N1 and OICR-9429
CRBN-TBD = settings: read-out: KD, affinity to CRBN-TBD; cited from earlier work
WDR5 [2] = target: T1, WDR5 (Homo sapiens, UniProt P61964); test: Isothermal titration calorimetry; type: binding; settings: for binding to WDR5 (ITC, in words): MS169 compared to MS40
[3] = target: CRBN's C-terminal thalidomide binding domain (CRBN-TBD) (Homo sapiens, UniProt Q96SW2); test: ITC, binding to CRBN thalidomide-binding domain
CRBN's C-terminal thalidomide binding domain (CRBN-TBD), sequence (Q96SW2 318-426 limits assumed): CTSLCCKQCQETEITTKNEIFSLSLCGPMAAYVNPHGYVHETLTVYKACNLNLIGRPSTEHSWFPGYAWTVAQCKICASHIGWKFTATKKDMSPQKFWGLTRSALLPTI

MV4;11 cells = test: RNA-seq transcriptomic profiling in MV4; type: cell-based, human
WDR5 [4] = target: T1, WDR5; settings: five lines of MLL-r AML and eight lines of breast cancer, 18 h
MLL-AF9 + AML PDX tumors = test: MLL-AF9+ AML PDX subcutaneous xenograft efficacy; type: in vivo, NSG-SGM3 mice; settings: i.p. once a day, 5 days per week; MS40 100 mg/kg, MS169 34 mg/kg, MS40N2 100 mg/kg
[5] = Compound concentrations in plasma and tumor of PDX-bearing mice; type: in vivo, NSG-SGM3 mice; settings: two hours post last dose; MS40 100 mg/kg, MS169 34 mg/kg, MS40N2 100 mg/kg
[6] = target: VHL–Elongin C–Elongin B ternary complex (VCB) (Homo sapiens, UniProt P40337); test: ITC, binding to VHL E3 ligase complex; settings: compared to MS40
VHL–Elongin C–Elongin B ternary complex (VCB), sequence (P40337 54-213 limits assumed): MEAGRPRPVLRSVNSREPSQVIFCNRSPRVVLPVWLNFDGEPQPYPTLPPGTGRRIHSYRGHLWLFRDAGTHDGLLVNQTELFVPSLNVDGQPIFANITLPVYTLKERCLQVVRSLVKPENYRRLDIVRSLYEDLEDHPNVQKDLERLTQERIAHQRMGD
VHL–Elongin C–Elongin B ternary complex (VCB), sequence (Q15369 17-112 partner limits assumed): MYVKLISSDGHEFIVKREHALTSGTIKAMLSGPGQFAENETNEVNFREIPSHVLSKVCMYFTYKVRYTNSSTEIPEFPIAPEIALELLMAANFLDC
VHL–Elongin C–Elongin B ternary complex (VCB), sequence (Q15370 1-104 partner limits assumed): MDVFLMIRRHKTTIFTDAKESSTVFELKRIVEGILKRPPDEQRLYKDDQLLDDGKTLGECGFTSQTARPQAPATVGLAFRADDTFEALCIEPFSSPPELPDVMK

Row | SMILES | global H3K4me2 level (H3K4me2) | IKZF1/IKZF3 degradation (immunoblot) (IKZF1 and IKZF3) | binding to WDR5 (ITC, in words) (WDR5 [2]) | PDX tumor growth compared to vehicle (MLL-AF9 + AML PDX tumors) | detected concentrations in plasma and tumor samples post-treatment [5] | further results
1 | CN1CCN(c2ccc(-c3cccc(CN4CCOCC4)c3)cc2NC(=O)c2c[nH]c(=O)cc2C(F)(F)F)CC1 [OICR-9429] | but not OICR-9429 or MS40N1 | – | – | – | – | –
2 | Nc1cccc2c1C(=O)N(C1CCC(=O)NC1=O)C2=O (stereo not shown) [pomalidomide] | did not affect global H3K4me2 | led to degradation of IKZF1/3 | – | – | – | LIMD1 degradation (immunoblot) (LIMD1): but not LIMD1; anti-proliferative effect in BT549 and SUM149 [1]: unaffected; Kd (CRBN-TBD): 16 ± 4 µM
3 | CN1CCN(c2ccc(-c3cccc(CN4CCN(CCNC(=O)CCCCCCCNc5cccc6c5C(=O)N(C5CCC(=O)N(C)C5=O)C6=O)CC4)c3)cc2NC(=O)c2c[nH]c(=O)cc2C(F)(F)F)CC1 (stereo not shown) [MS40N1] | but not OICR-9429 or MS40N1 | – | – | – | – | fold lower binding affinity to WDR5 compared to OICR-9429 (WDR5 [2]; ITC): 4 fold; Kd (WDR5 [2]; read-out: KD, binding affinity to WDR5, ITC, 25 °C, mean ± SD of three experiments): 130 ± 1 nM; KD, affinity to CRBN-TBD ([3]; 25 °C, mean ± SD): no binding was observed; gene-expression changes compared to DMSO (RNA-seq) (MV4;11 cells): did not result in significant gene-expression changes; WDR5 degradation in panel of cell lines (WDR5 [4]): did not induce notable WDR5 reduction
4 | O=C(CCCCCCCNc1cccc2c1C(=O)N(C1CCC(=O)NC1=O)C2=O)NCCN1CCN(Cc2cccc(-c3ccc(N4CCOCC4)c(NC(=O)c4c[nH]c(=O)cc4C(F)(F)F)c3)c2)CC1 (stereo not shown) [MS40N2] | – | induced degradation of IKZF1 and IKZF3 | not bind WDR5 | no detected inhibitory effects on PDX tumor growth | higher than those of MS40 | binding to CRBN (ITC, in words) [3]: bind CRBN with a similar affinity as MS40
5 | Cc1ncsc1-c1ccc(CNC(=O)[C@@H]2C[C@@H](O)CN2C(=O)[C@@H](NC(=O)CCCCCCCCCC(=O)NCCN2CCN(Cc3cccc(-c4ccc(N5CCN(C)CC5)c(NC(=O)c5c[nH]c(=O)cc5C(F)(F)F)c4)c3)CC2)C(C)(C)C)cc1 [MS169] | – | without affecting IKZF1/3 | comparable binding affinities to WDR5 and E3 ligase | no detected inhibitory effects on PDX tumor growth | higher than those of MS40 | binding to E3 ligase (ITC, in words) [6]: comparable binding affinities to WDR5 and E3 ligase
